Source: patent US8658801B2, “Pesticides containing a bicyclic bisamide structure” (Syngenta Crop Protection, LLC, priority 2006, dated 2014)
Read-outs that look alike come from different tables or passages of the source.

Experiments:
[1] = system: Plutella xylostella (Diamond Back Moth); experiment: Example B14: comparison with state of the art, Plutella xylostella, larvicide, feeding/residual contact, preventive; type: in vivo
Description: Plutella xylostella (Diamond Back Moth)
(Larvicide, Feeding/Residual Contact Activity, Preventive)
24-well microtiter plate (MTP) with artificial diet is treated with test solutions by pipetting. After drying, the MTP's are infested with larvae (L2)(10-15 per well). After an incubation period of 5 days, samples are checked for larval mortality, antifeedant and growth regulation.

Heliothis virescens = experiment: Example B15: comparison with state of the art, Heliothis virescens ovo-larvicide test; type: in vivo; conditions: for inhibition at 0.8 ppm / inhibition at 3.1 ppm / inhibition at 12.5 ppm / inhibition at 50 ppm: Heliothis virescens, 96 h, read-out: Ovo-larvicidal activity (%) after 4 days
Description: Activity Against Heliothis virescens (Ovo-Larvicide Test)
(§1) Eggs (0-24 h old) are placed in 24-well microtiter plate on artificial diet and treated with test solutions by pipetting. After an incubation period of 4 days, samples are checked for egg mortality, larval mortality, and growth regulation.

[2] = system: Spodoptera littoralis (Egyptian Cotton Leafworm); experiment: Example B1: activity against Spodoptera littoralis, larvicide, feeding/residual contact, preventive (cotton leaf discs); type: in vivo; conditions: foliar, 72 h, 3 days after treatment, L1 larvae
[3] = system: Heliothis virescens (Tobacco Budworm); experiment: Example B2: activity against Heliothis virescens, ovo-larvicide, feeding/contact, curative; type: in vivo; conditions: 96 h, 4 days incubation, eggs 0-24 h old
Description: Activity Against Heliothis virescens (Tobacco Budworm)
(Ovo-Larvicide, Feeding/Contact Activity, Curative)
as §1

[4] = system: Plutella xylostella (Diamond Back Moth); experiment: Example B3: Plutella xylostella, larvicide, feeding/residual contact, preventive (artificial diet MTP); type: in vivo; conditions: 120 h, 5 days incubation, L2 larvae
Method in brief: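 Artificial diet in multiwell plates treated with test solution, dried, then infested with 10–15 L2 larvae per well. After 5 days, larval mortality, antifeedant effect and growth regulation were scored.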

[5] = system: Diabrotica balteata (Corn Root Worm); experiment: Example B4: Diabrotica balteata, larvicide, feeding/residual contact, preventive; type: in vivo; conditions: 120 h, 5 days incubation, L2 larvae
Method in brief: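 Artificial diet treated with test solution, dried, then infested with 6-10 L2 larvae per well. Larval mortality, antifeedant effect and growth regulation checked after 5 days of incubation.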

[6] = system: Cydia pomonella (Codling Moth); experiment: Example B8: activity against Cydia pomonella (paraffin-coated diet cubes); type: in vivo; conditions: 336 h, 14 days incubation at 26° C.
Description: Activity Against Cydia pomonella (Codling Moth)
Standard Cydia diet cubes (1.5 cm width) are pierced with a tooth-pick and are immersed in liquid paraffin (ca. 80° C.). After the paraffin coat has hardened, an aqueous emulsion containing 400 ppm of active ingredient is applied using a De Vilbis sprayer (25 ml, 1 bar). After the spray coating has dried, the cubes are put into plastic containers which are then populated with two freshly hatched Cydia pomonella (1st instar). The containers are then closed with a plastic cap. After 14 days incubation at 26° C. and 40-60% relative humidity, the survival rate of the caterpillars as well as their growth regulation is determined. In this test, compounds listed in Table P above show good activity. In particular compounds P.10, P.11, P.12, P.18, P.19, P.20, P.29, P.30, P.31, P.32, P.33, P.34, P.35, P.37, P.38, P.39, P.42, and P.43 show an activity of over 80% at a concentration of 400 ppm.

[7] = system: Frankliniella occidentalis (Western Flower Thrips); experiment: Example B9: activity against Frankliniella occidentalis (bean leaf discs or bean plants); type: in vivo; conditions: foliar, 6 days (leaf discs) or 14 days (plants) after infestation
Method in brief: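 Bean leaf discs on agar or whole bean plants sprayed with diluted test solutions, then infested with a mixed thrips population after drying. Population reduction versus untreated assessed 6 days (discs) or 14 days (plants) after infestation.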

[8] = system: Aphis craccivora (Pea Aphid); experiment: Example B10: activity against Aphis craccivora, mixed population, contact/feeding; type: in vivo; conditions: 144 h, 6 days after treatment, spray (contact/feeding)
Text: (§2) Activity Against Aphis craccivora (Pea Aphid)
(Mixed Population, Contact/Feeding)
6 days after treatment, samples are checked for mortality.

[9] = system: Aphis craccivora (Pea Aphid); experiment: Example B11: activity against Aphis craccivora, mixed population, systemic/feeding; type: in vivo; conditions: 144 h, 6 days, roots in test solution (systemic)
Text: as §2
(§3) (Mixed Population, Systemic/Feeding)
(§4) 6 days later, samples are checked for mortality.

[10] = system: Aphis aossypii (Cotton Aphid); experiment: Example B13: activity against cotton aphid, mixed population, systemic/feeding; type: in vivo; conditions: 144 h, 6 days, roots in test solution (systemic)
Text: Activity Against Aphis aossypii (Cotton Aphid)
as §3, §4

[11] = system: Myzus persicae (Green Peach Aphid); experiment: Example B6: activity against Myzus persicae, mixed population, systemic/feeding, curative (pea seedling roots); conditions: 144 h, read-out: activity
[12] = system: Myzus persicae (Green Peach Aphid); experiment: Example B5: activity against Myzus persicae, mixed population, feeding/residual contact, preventive (sunflower leaf discs); conditions: foliar, 144 h, read-out: activity
[13] = system: Thrips tabaci (Onion Thrips); experiment: Example B7: activity against Thrips tabaci, mixed population, feeding/residual contact, preventive; conditions: 144 h, read-out: activity
[14] = especially at 12.5, 3.1 and 0.8 ppm

Structure (SMILES) | pest or weed control at 400 ppm [2] | pest or weed control at 400 ppm [3] | pest or weed control at 400 ppm [4] | pest or weed control at 400 ppm [5] | pest or weed control at 400 ppm [6] | pest or weed control at 400 ppm [7] | pest or weed control at 400 ppm [8] | pest or weed control at 400 ppm [9] | pest or weed control at 400 ppm [10] | pest or weed control at 400 ppm [11] | pest or weed control at 400 ppm [12] | pest or weed control at 400 ppm [13] | further results
Cc1cc2cn[nH]c2c(C(=O)NC2(C3CC3)CC2)c1NC(=O)c1cc(C(F)F)nn1-c1ncccc1Cl |  |  |  |  |  |  |  |  |  |  |  |  | melting point: 224 to 227 °C
Cc1nc2ccccc2c(C(=O)NC(C)C)c1NC(=O)c1cc(C(F)(F)F)nn1-c1ncccc1Cl [Compound T81.3, reference compound] |  |  |  |  |  |  |  |  |  |  |  |  | Death rate (%) after 5 days ([1]; 0.8 ppm): 0%; Death rate (%) after 5 days ([1]; 3.1 ppm): 0%; Death rate (%) after 5 days ([1]; 12.5 ppm): 60%; Death rate (%) after 5 days ([1]; 50 ppm): 100%; inhibition at 0.8 ppm (Heliothis virescens): 0%; inhibition at 3.1 ppm (Heliothis virescens): 25%; inhibition at 12.5 ppm (Heliothis virescens): 65%; inhibition at 50 ppm (Heliothis virescens): 80%
C#Cc1cc2cn[nH]c2c(C(=O)NC(C)C)c1NC(=O)c1cc(C(F)(F)F)nn1-c1ncccc1Cl [Example 34, 6-{[2-(3-chloro-pyridin-2-yl)-5-trifluoromethyl-2H-pyrazole-3-carbonyl]-amino}-5-ethynyl-1H-indazole-7-carboxylic acid isopropylamide] |  |  |  |  |  |  |  |  |  |  |  |  | melting point: 226 to 229 °C
CCNC(=O)c1c(NC(=O)c2cc(C(F)(F)F)nn2-c2ncccc2Cl)c(Cl)cc2cn[nH]c12 [P.30] | > 80% | > 80% | > 80% | > 80% | > 80% | > 80% | > 80% | > 80% | > 80% | > 80% | > 80% |  | 
CC(C)NC(=O)c1c(NC(=O)c2cc(Br)nn2-c2ncccc2Cl)c(Cl)cc2cn[nH]c12 [P.42] | > 80% | > 80% | > 80% | > 80% | > 80% | > 80% | > 80% | > 80% | > 80% | > 80% | > 80% | > 80% | 
CC(C)NC(=O)c1c(NC(=O)c2cc(Cl)nn2-c2ncccc2Cl)c(Cl)cc2cn[nH]c12 [P.43] | > 80% | > 80% | > 80% | > 80% | > 80% | > 80% | > 80% | > 80% | > 80% | > 80% | > 80% | > 80% | 
COc1cc(C(=O)Nc2c(Cl)cc3cn[nH]c3c2C(=O)NC2(C3CC3)CC2)n(-c2ncccc2Cl)n1 [P.47] | > 80% | > 80% | > 80% | > 80% |  | > 80% | > 80% | > 80% | > 80% | > 80% | > 80% | > 80% | 
Cc1cc2ncccc2c(C(=O)NC(C)C)c1NC(=O)c1cc(C(F)(F)F)nn1-c1ncccc1Cl [P.78, 6-{[2-(3-chloro-pyridin-2-yl)-5-trifluoromethyl-2H-pyrazole-3-carbonyl]-amino}-7-methyl-quinoline-5-carboxylic acid isopropylamide] |  | > 80% | > 80% | > 80% |  |  |  |  |  |  |  |  | Death rate (%) after 5 days ([1]; 0.8 ppm): 50%; Death rate (%) after 5 days ([1]; 3.1 ppm): 100%; Death rate (%) after 5 days ([1]; 12.5 ppm): 100%; Death rate (%) after 5 days ([1]; 50 ppm): 100%; insecticidal action compared with the compound from the state of the art (T81.3) [1, 14]: substantially better insecticidal action; inhibition at 0.8 ppm (Heliothis virescens; 0.8 ppm): 50%; inhibition at 3.1 ppm (Heliothis virescens; 3.1 ppm): 50%; inhibition at 12.5 ppm (Heliothis virescens; 12.5 ppm): 80%; inhibition at 50 ppm (Heliothis virescens; 50 ppm): 80%; insecticidal action compared with the compound from the state of the art (T81.3) (Heliothis virescens; [14]): substantially better insecticidal action
